Measurements taken from PMC6010916, “Safety and pharmacokinetics of veliparib extended‐release in patients with advanced solid tumors: a phase I study” (Cancer Medicine, 2018).

Test: Safety: treatment-emergent adverse events (NCI CTCAE version 4.0)
Type: in vivo, human
[1] = Cycle 1, Part 1, extension (n = 24)

Protocol: Adverse event (AE) severity was assessed according to the National Cancer Institute Common Terminology Criteria for Adverse Events (NCI CTCAE) version 4.0. Tumor evaluations were performed at screening, every 8 weeks after the first administration of study drug, and at the final visit using radiographic measurements from computed tomography or magnetic resonance imaging. Objective tumor responses were evaluated using RECIST version 1.1 criteria. Patients who received one or more doses of veliparib were included in the PK and safety analyses, as well as for evaluation of time to disease progression (TTP). Patients with one or more measurable lesion at baseline were included in the analysis of objective responses.

C[C@]1(c2nc3c(C(N)=O)cccc3[nH]2)CCCN1 [veliparib]
SAE leading to dose reduction (All cycles, Part 3 (n = 12)): 0 n (%) | TEAE: Abdominal pain (All cycles, Part 3 (n = 12)): 4 (33.3) n (%) | TEAE: Anemia (All cycles, Part 3 (n = 12)): 2 (16.7) n (%) | TEAE: Any AE (All cycles, Part 3 (n = 12)): 12 (100) n (%) | TEAE: At least possibly related to study drug (All cycles, Part 3 (n = 12)): 10 (83.3) n (%) | TEAE: Constipation (All cycles, Part 3 (n = 12)): 4 (33.3) n (%) | TEAE: Decreased appetite (All cycles, Part 3 (n = 12)): 2 (16.7) n (%) | TEAE: Diarrhea (All cycles, Part 3 (n = 12)): 6 (50.0) n (%) | TEAE: Fatigue (All cycles, Part 3 (n = 12)): 2 (16.7) n (%) | TEAE: NCI CTCAE grade 3 or 4 (All cycles, Part 3 (n = 12)): 4 (33.3) n (%) | TEAE: Nausea (All cycles, Part 3 (n = 12)): 9 (75.0) n (%) | TEAE: Nausea, Grade 1 (All cycles, Part 3 (n = 12)): 6 (50.0) n (%) | TEAE: Nausea, Grade 2 (All cycles, Part 3 (n = 12)): 2 (16.7) n (%) | TEAE: Nausea, Grade 3 (All cycles, Part 3 (n = 12)): 1 (8.3) n (%) | TEAE: Urinary tract infection (All cycles, Part 3 (n = 12)): 3 (25.0) n (%) | TEAE: Vomiting (All cycles, Part 3 (n = 12)): 7 (58.3) n (%) | TEAE: Vomiting, Grade 1 (All cycles, Part 3 (n = 12)): 4 (33.3) n (%) | TEAE: Vomiting, Grade 2 (All cycles, Part 3 (n = 12)): 2 (16.7) n (%) | TEAE: Vomiting, Grade 3 (All cycles, Part 3 (n = 12)): 1 (8.3) n (%) | Any SAE (Cycle 1, All patients (N = 71)): 10 (14.1) n (%) | SAE leading to discontinuation (Cycle 1, All patients (N = 71)): 4 (5.6) n (%) | SAE leading to dose interruption (Cycle 1, All patients (N = 71)): 6 (8.5) n (%) | SAE leading to dose reduction (Cycle 1, All patients (N = 71)): 1 (1.4) n (%) | TEAE: Any AE (Cycle 1, All patients (N = 71)): 67 (94.4) n (%) | TEAE: At least possibly related to study drug (Cycle 1, All patients (N = 71)): 50 (70.4) n (%) | TEAE: NCI CTCAE grade 3 or 4 (Cycle 1, All patients (N = 71)): 13 (18.3) n (%) | Any SAE [1]: 4 (16.7) n (%) | SAE leading to discontinuation [1]: 3 (12.5) n (%) | SAE leading to dose interruption [1]: 2 (8.3) n (%) | SAE leading to dose reduction [1]: 0 n (%) | TEAE: Any AE [1]: 23 (95.8) n (%) | TEAE: At least possibly related to study drug [1]: 14 (58.3) n (%) | TEAE: NCI CTCAE grade 3 or 4 [1]: 4 (16.7) n (%) | Any SAE (Cycle 1, Part 2 (n = 35)): 5 (14.3) n (%) | SAE leading to discontinuation (Cycle 1, Part 2 (n = 35)): 1 (2.9) n (%) | SAE leading to dose interruption (Cycle 1, Part 2 (n = 35)): 3 (8.6) n (%) | SAE leading to dose reduction (Cycle 1, Part 2 (n = 35)): 1 (2.9) n (%) | TEAE: Any AE (Cycle 1, Part 2 (n = 35)): 34 (97.1) n (%) | TEAE: At least possibly related to study drug (Cycle 1, Part 2 (n = 35)): 29 (82.9) n (%) | TEAE: NCI CTCAE grade 3 or 4 (Cycle 1, Part 2 (n = 35)): 8 (22.9) n (%) | Any SAE (Cycle 1, Part 3 (n = 12)): 1 (8.3) n (%) | SAE leading to discontinuation (Cycle 1, Part 3 (n = 12)): 0 n (%) | SAE leading to dose interruption (Cycle 1, Part 3 (n = 12)): 1 (8.3) n (%) | SAE leading to dose reduction (Cycle 1, Part 3 (n = 12)): 0 n (%) | TEAE: Any AE (Cycle 1, Part 3 (n = 12)): 10 (83.3) n (%) | TEAE: At least possibly related to study drug (Cycle 1, Part 3 (n = 12)): 7 (58.3) n (%) | TEAE: NCI CTCAE grade 3 or 4 (Cycle 1, Part 3 (n = 12)): 1 (8.3) n (%) | Any SAE (Part 1, PK BA portion (n = 24)): 2 (8.3) n (%) | SAE leading to discontinuation (Part 1, PK BA portion (n = 24)): 0 n (%) | SAE leading to dose interruption (Part 1, PK BA portion (n = 24)): 1 (4.2) n (%) | SAE leading to dose reduction (Part 1, PK BA portion (n = 24)): 0 n (%) | TEAE: Any AE (Part 1, PK BA portion (n = 24)): 17 (70.8) n (%) | TEAE: At least possibly related to study drug (Part 1, PK BA portion (n = 24)): 7 (29.2) n (%) | TEAE: NCI CTCAE grade 3 or 4 (Part 1, PK BA portion (n = 24)): 2 (8.3) n (%) | TEAE: Abdominal pain (Part 1, PK phase (n = 24)): 3 (12.5) n (%) | TEAE: Anemia (Part 1, PK phase (n = 24)): 1 (4.2) n (%) | TEAE: Constipation (Part 1, PK phase (n = 24)): 0 n (%) | TEAE: Decreased appetite (Part 1, PK phase (n = 24)): 1 (4.2) n (%) | TEAE: Diarrhea (Part 1, PK phase (n = 24)): 2 (8.3) n (%) | TEAE: Fatigue (Part 1, PK phase (n = 24)): 0 n (%) | TEAE: Nausea (Part 1, PK phase (n = 24)): 4 (16.7) n (%) | TEAE: Nausea, Grade 1 (Part 1, PK phase (n = 24)): 4 (16.7) n (%) | TEAE: Nausea, Grade 2 (Part 1, PK phase (n = 24)): 0 n (%) | TEAE: Nausea, Grade 3 (Part 1, PK phase (n = 24)): 0 n (%) | TEAE: Urinary tract infection (Part 1, PK phase (n = 24)): 0 n (%) | TEAE: Vomiting (Part 1, PK phase (n = 24)): 1 (4.2) n (%) | TEAE: Vomiting, Grade 1 (Part 1, PK phase (n = 24)): 1 (4.2) n (%) | TEAE: Vomiting, Grade 2 (Part 1, PK phase (n = 24)): 0 n (%) | TEAE: Vomiting, Grade 3 (Part 1, PK phase (n = 24)): 0 n (%) | grade 3 or 4 treatment-related anemia, patients (Part 1 extension/Part 2/Part 3): 0/3/0 | grade 3 or 4 treatment-related nausea, patients (Part 1 extension/Part 2/Part 3): 0/2/1 | grade 3 or 4 treatment-related thrombocytopenia, patients (Part 1 extension/Part 2/Part 3): 2/3/0 | TEAE: Abdominal pain (Total (N = 71)): 17 (23.9) n (%) | TEAE: Constipation (Total (N = 71)): 23 (32.4) n (%) | TEAE: Decreased appetite (Total (N = 71)): 15 (21.1) n (%) | TEAE: Diarrhea (Total (N = 71)): 23 (32.4) n (%) | TEAE: Fatigue (Total (N = 71)): 23 (32.4) n (%) | TEAE: Nausea (Total (N = 71)): 56 (78.9) n (%) | TEAE: Nausea, Grade 1 (Total (N = 71)): 45 (63.4) n (%) | TEAE: Nausea, Grade 2 (Total (N = 71)): 10 (14.1) n (%) | TEAE: Nausea, Grade 3 (Total (N = 71)): 3 (4.2) n (%) | TEAE: Urinary tract infection (Total (N = 71)): 15 (21.1) n (%) | TEAE: Vomiting (Total (N = 71)): 36 (50.7) n (%) | TEAE: Vomiting, Grade 1 (Total (N = 71)): 29 (40.8) n (%) | TEAE: Vomiting, Grade 2 (Total (N = 71)): 5 (7.0) n (%) | TEAE: Vomiting, Grade 3 (Total (N = 71)): 2 (2.8) n (%) | patients who experienced one or more TEAE (all cycles, 71 patients): 98.6% | patients with Grade 3 or 4 TEAEs (all cycles, 71 patients): 39.4% | patients who experienced one or more TEAE (cycle 1, 71 patients): 94.4% | patients with Grade 3 or 4 TEAEs (cycle 1, 71 patients): 18.3% | grade 3 or 4 treatment-related anemia (overall): 4.2% | grade 3 or 4 treatment-related nausea (overall): 4.2% | grade 3 or 4 treatment-related thrombocytopenia (overall): 7.0% | TEAE constipation, frequency (overall, 71 patients): 32.4% | TEAE diarrhea, frequency (overall, 71 patients): 32.4% | TEAE fatigue, frequency (overall, 71 patients): 32.4% | TEAE nausea, frequency (overall, 71 patients): 78.9% | TEAE vomiting, frequency (overall, 71 patients): 50.7%
